Source: PubChem BioAssay (NCI)
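Cells were grown in 96-well plates and exposed to each compound for 48 hours at five concentrations; endpoints were interpolated linearly between bracketing concentrations, or set to the highest concentration if not reached. Abbreviation: GI50, concentration required for 50% inhibition of growth. TGI is the concentration that stops growth completely.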

What was measured:
Assay in all cases: NCI anticancer screen, dose series, 48 h
U251 CNS = system: U251 CNS
TK-10 renal = system: TK-10 renal
NCI-H460 lung = system: NCI-H460 lung
UACC-257 melanoma = system: UACC-257 melanoma
OVCAR-8 ovarian = system: OVCAR-8 ovarian
NCI-H23 lung = system: NCI-H23 lung
CAKI-1 renal = system: CAKI-1 renal
SK-OV-3 ovarian = system: SK-OV-3 ovarian
HCT-116 colon = system: HCT-116 colon
OVCAR-5 ovarian = system: OVCAR-5 ovarian

| Structure (SMILES) | GI50 (U251 CNS) [µM] | TGI (U251 CNS) [µM] | GI50 (TK-10 renal) [µM] | TGI (TK-10 renal) [µM] | GI50 (NCI-H460 lung) [µM] | TGI (NCI-H460 lung) [µM] | GI50 (UACC-257 melanoma) [µM] | TGI (UACC-257 melanoma) [µM] | GI50 (OVCAR-8 ovarian) [µM] | TGI (OVCAR-8 ovarian) [µM] | GI50 (NCI-H23 lung) [µM] | TGI (NCI-H23 lung) [µM] | GI50 (CAKI-1 renal) [µM] | TGI (CAKI-1 renal) [µM] | GI50 (SK-OV-3 ovarian) [µM] | TGI (SK-OV-3 ovarian) [µM] | GI50 (HCT-116 colon) [µM] | TGI (HCT-116 colon) [µM] | GI50 (OVCAR-5 ovarian) [µM] | TGI (OVCAR-5 ovarian) [µM] |
| --- | --- | --- | --- | --- | --- | --- | --- | --- | --- | --- | --- | --- | --- | --- | --- | --- | --- | --- | --- | --- |
| Cc1cc(S(N)(=O)=O)c(S/C(CC(C)C)=N\Nc2ccc([N+](=O)[O-])cc2)cc1Cl | 10.6 | 25.5 | 2.93 | 8.33 | 4.09 | 17.8 | 16.4 | 33.8 | 16.9 | 52.8 | 3.74 | 12.6 | 2.24 | 6.85 | 13.7 | 28.2 | 3.53 | 13 | 14.8 | 27.9 |
| Ic1ccccc1-c1ccccc1 | > 100 | > 100 | > 100 | > 100 | > 100 | > 100 | > 100 | > 100 | > 100 | > 100 | > 100 | > 100 | > 100 | > 100 | > 100 | > 100 | 94.9 | > 100 | > 100 | > 100 |
| O=c1cc2ccccc2nn1Cc1cccc(Cl)c1 | – | > 100 | – | > 100 | – | > 100 | – | > 100 | – | > 100 | – | > 100 | – | > 100 | – | > 100 | – | > 100 | – | > 100 |
| CC(C)(C)c1nn(-c2ccccc2)c2c1C(=O)CSC(c1ccccc1Cl)N2 (stereo not given) | 2.41 | 15.5 | 11.1 | 29.4 | 2.8 | 12.4 | 2.78 | 14.7 | 6.65 | 30.2 | 2.39 | 17.9 | 1.24 | 22.2 | 1.78 | 6.17 | 1.9 | 12 | 3.18 | 13.1 |
| Nc1c(Br)cc(Br)c2c1[nH]c(=O)c1ccccc12 | 5.08 | 26.7 | 3.67 | 10.9 | 3.33 | 14.6 | 21.7 | > 100 | 4.04 | 26.5 | 20.7 | > 100 | 3.69 | 21.3 | 2.85 | 7.81 | 3.98 | 20.2 | 25.7 | > 100 |
| O=NNc1ccc(S(=O)(=O)c2ccccc2)cn1 | – | > 100 | – | > 100 | – | > 100 | – | > 100 | – | > 100 | – | > 100 | – | > 100 | – | > 100 | – | > 100 | – | > 100 |
| CCC/C(=N/NC(=O)C(N)=O)C(CC)C(=O)CCC(=O)N(Cc1ccccc1)Cc1ccccc1 (stereo not given) | – | > 100 | – | > 100 | – | > 100 | – | > 100 | – | > 100 | – | > 100 | – | > 100 | – | > 100 | – | > 100 | – | > 100 |
| CCC(CO)Nc1nc(NCc2ccccc2O)c2ncn(C(C)C)c2n1 (stereo not given) | 4.75 | > 100 | 10.2 | > 100 | 2.45 | 11.8 | 32.2 | > 100 | 4.21 | > 100 | 2.98 | 15.7 | 15.6 | 63.4 | 5.95 | 41 | 2.65 | > 100 | 3.72 | > 100 |
| Cn1c(/C=C(\C#N)c2ccccc2)nc2c(N3CCOCC3)nc(Cl)nc21 | 1.47 | 2.97 | 1.82 | 3.24 | 1.77 | 3.72 | 1.43 | 3.03 | 1.04 | 3.39 | 1.63 | 3.2 | 0.824 | 2.21 | 4.54 | 16.2 | 0.178 | 0.432 | 1.42 | 2.99 |
| COc1cc(/C=C(\C#N)C(=O)c2ccccc2)ccc1O | – | > 100 | – | > 100 | – | > 100 | – | > 100 | – | > 100 | – | > 100 | – | > 100 | – | > 100 | – | > 100 | – | > 100 |
| N#CC(C(=O)CCC(=O)C(C#N)c1ccccc1)c1ccccc1 (stereo not given) | – | > 100 | – | > 100 | – | > 100 | – | > 100 | – | > 100 | – | > 100 | – | > 100 | – | > 100 | – | > 100 | – | > 100 |
